The values below come from patent US8461328B2, “Tricyclic heterocyclic compounds, compositions and methods of use thereof” (Genentech, Inc., priority 2010, dated 2013).

Common to all, as to type: biochemical
In experiment [1] the target is T1, JAK1 (Homo sapiens, UniProt P23458).
T1 construct: made in house; host or cells: SF9 insect cells (baculovirus)
Put plainly: JAK1 inhibition (Table 4). Particulars: read-out: JAK1 Ki.

Experiment [2] addresses T2, TYK2 (Homo sapiens, UniProt P29597).
T2 construct: made in house; host or cells: SF9 insect cells (baculovirus)
T2 sequence (P29597 873-1187): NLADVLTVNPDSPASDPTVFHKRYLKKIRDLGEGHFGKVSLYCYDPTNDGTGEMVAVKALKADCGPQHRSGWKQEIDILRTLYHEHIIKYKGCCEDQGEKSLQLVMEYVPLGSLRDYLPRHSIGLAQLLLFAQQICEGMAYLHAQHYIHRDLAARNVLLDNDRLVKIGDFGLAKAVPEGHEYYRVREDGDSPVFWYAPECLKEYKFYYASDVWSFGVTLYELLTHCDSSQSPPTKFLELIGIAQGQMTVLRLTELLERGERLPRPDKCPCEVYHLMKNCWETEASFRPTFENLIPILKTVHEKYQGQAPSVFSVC
The experiment can be described thus: TYK2 inhibition (Table 4).

Experiment [3] has as its target T3, JAK2 (Homo sapiens, UniProt O60674).
T3 construct: made in house; host or cells: SF9 insect cells (baculovirus)
Put plainly: JAK2 inhibition (Table 4). Particulars: read-out: JAK2 Ki.

The target of experiment [4] is T4, JAK3 (Homo sapiens, UniProt P52333).
T4 construct: made in house; host or cells: SF9 insect cells (baculovirus)
T4 sequence (P52333 783-1124): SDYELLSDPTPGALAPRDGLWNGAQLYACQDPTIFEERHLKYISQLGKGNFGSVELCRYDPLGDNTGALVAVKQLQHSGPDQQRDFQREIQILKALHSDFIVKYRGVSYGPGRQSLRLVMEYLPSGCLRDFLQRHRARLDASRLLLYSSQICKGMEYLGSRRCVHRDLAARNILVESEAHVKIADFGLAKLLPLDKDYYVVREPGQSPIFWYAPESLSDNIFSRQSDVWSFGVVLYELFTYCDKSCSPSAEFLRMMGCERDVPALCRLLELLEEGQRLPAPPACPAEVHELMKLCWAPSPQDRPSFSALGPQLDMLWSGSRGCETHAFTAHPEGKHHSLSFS
Put plainly: JAK3 inhibition (Table 4). Conditions: read-out: JAK3 Ki.

What is called Ki is the dissociation constant of the complex between target and ligand, obtained from inhibition or displacement.

T3 sequence (O60674 812-1132): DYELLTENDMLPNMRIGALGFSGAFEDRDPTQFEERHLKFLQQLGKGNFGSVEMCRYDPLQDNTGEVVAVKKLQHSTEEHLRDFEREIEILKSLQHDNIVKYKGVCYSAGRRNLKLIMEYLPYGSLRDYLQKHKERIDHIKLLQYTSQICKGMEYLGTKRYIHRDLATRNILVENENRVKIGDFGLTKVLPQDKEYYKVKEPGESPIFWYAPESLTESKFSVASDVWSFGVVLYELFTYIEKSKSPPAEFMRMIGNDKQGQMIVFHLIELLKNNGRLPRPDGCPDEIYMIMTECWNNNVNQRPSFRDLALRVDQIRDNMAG
T1 sequence (P23458 852-1154): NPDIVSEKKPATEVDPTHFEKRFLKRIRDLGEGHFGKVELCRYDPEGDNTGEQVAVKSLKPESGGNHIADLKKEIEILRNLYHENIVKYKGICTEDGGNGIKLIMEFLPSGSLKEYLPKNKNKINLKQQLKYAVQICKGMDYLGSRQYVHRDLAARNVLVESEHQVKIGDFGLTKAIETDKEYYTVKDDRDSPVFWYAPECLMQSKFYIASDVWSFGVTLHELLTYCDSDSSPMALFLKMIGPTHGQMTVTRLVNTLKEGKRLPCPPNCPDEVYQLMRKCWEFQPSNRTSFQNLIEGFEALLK

Take `N#CCCN1CCC(n2c(CCNS(=O)(=O)C3CC3)nc3cnc4[nH]ccc4c32)CC1` [Example 370, Cyclopropanesulfonic acid (2-{1-[1-(2-cyano-ethyl)-piperidin-4-yl]-1,6-dihydro-1,3,5,6-tetraaza-as-indacen-2-yl}-ethyl)-amide]: the Ki in experiment [1] was 2.95 nM; in experiment [2], 77.9 nM; in experiment [3], 16.7 nM; in experiment [4], 27.8 nM.

Take `COCCC(=O)NCCc1nc2cnc3[nH]ccc3c2n1C1CCN(CCC#N)CC1` [Example 371, N-(2-{1-[1-(2-Cyano-ethyl)-piperidin-4-yl]-1,6-dihydro-1,3,5,6-tetraaza-as-indacen-2-yl}-ethyl)-3-methoxy-propionamide]: the Ki in experiment [1] was found to be 4.82 nM; in experiment [2], 178 nM; in experiment [3] it was 35.5 nM; in experiment [4], 48.5 nM.

`COCC(=O)NCCc1nc2cnc3[nH]ccc3c2n1C1CCN(CCC#N)CC1` [Example 372, N-(2-{1-[1-(2-Cyano-ethyl)-piperidin-4-yl]-1,6-dihydro-1,3,5,6-tetraaza-as-indacen-2-yl}-ethyl)-2-methoxy-acetamide]: the inhibition constant (Ki) worked out at 4.59 nM in experiment [1], 135 nM in experiment [2], 22 nM in experiment [3] and 28.8 nM in experiment [4].

For `N#CCCN1CCC(n2c(CCNC(=O)c3ccc(F)cc3)nc3cnc4[nH]ccc4c32)CC1` [Example 373, N-(2-{1-[1-(2-Cyano-ethyl)-piperidin-4-yl]-1,6-dihydro-1,3,5,6-tetraaza-as-indacen-2-yl}-ethyl)-4-fluoro-benzamide], the Ki in experiment [1] was 4.07 nM; in experiment [2], 120 nM; in experiment [3] it was 27 nM; in experiment [4], 52 nM.

For the molecule `CC(C)(C)C(=O)NCCc1nc2cnc3[nH]ccc3c2n1C1CCN(CCC#N)CC1` [Example 374, N-(2-{l-[l-(2-Cyano-ethyl)-piperidin-4-yl]-1,6-dihydro-1,3,5,6-tetraaza-as-indacen-2-yl}-ethyl)-2,2-dimethyl-propionamide], the Ki in experiment [1] stood at 4.69 nM; in experiment [2], 350 nM; in experiment [3], 89.4 nM; in experiment [4], 100 nM.

On to `N#CCCN1CCC(n2c(CCNC(=O)C3CCC3)nc3cnc4[nH]ccc4c32)CC1` [Example 375, Cyclobutanecarboxylic acid (2-{1-[1-(2-cyano-ethyl)-piperidin-4-yl]-1,6-dihydro-1,3,5,6-tetraaza-as-indacen-2-yl}-ethyl)-amide], for which the Ki came to 4.11 nM in experiment [1], 158 nM in experiment [2], 43 nM in experiment [3] and 59.8 nM in experiment [4].

Turning to `CC(C)CC(=O)NCCc1nc2cnc3[nH]ccc3c2n1C1CCN(CCC#N)CC1` [Example 376, N-(2-{1-[1-(2-Cyano-ethyl)-piperidin-4-yl]-1,6-dihydro-1,3,5,6-tetraaza-as-indacen-2-yl}-ethyl)-3-methyl-butyramide], the Ki in experiment [1] came to 4.15 nM; in experiment [2], 188 nM; in experiment [3] it was 38.6 nM; in experiment [4] it was 61.9 nM.

Take `N#CCCN1CCC(n2c(CCNC(=O)C3CC3)nc3cnc4[nH]ccc4c32)CC1` [Example 377, Cyclopropanecarboxylic acid (2-{1-[1-(2-cyano-ethyl)-piperidin-4-yl]-1,6-dihydro-1,3,5,6-tetraaza-as-indacen-2-yl}-ethyl)-amide]: the inhibition constant (Ki) in experiment [1] was 3.64 nM; in experiment [2] it was 185 nM; in experiment [3], 29.5 nM; in experiment [4] it was 50.3 nM.

Consider `CC(C)C(=O)NCCc1nc2cnc3[nH]ccc3c2n1C1CCN(CCC#N)CC1` [Example 378, N-(2-{1-[1-(2-Cyano-ethyl)-piperidin-4-yl]-1,6-dihydro-1,3,5,6-tetraaza-as-indacen-2-yl}-ethyl)-isobutyramide], for which the inhibition constant Ki in experiment [1] came out at 5.03 nM; in experiment [2], 226 nM; in experiment [3], 48.4 nM; in experiment [4], 61.3 nM.

For the molecule `CC(=O)NCCc1nc2cnc3[nH]ccc3c2n1C1CCN(CCC#N)CC1` [Example 379, N-(2-{1-[1-(2-Cyano-ethyl)-piperidin-4-yl]-1,6-dihydro-1,3,5,6-tetraaza-as-indacen-2-yl}-ethyl)-acetamide], the inhibitory constant (Ki) in experiment [1] was 3.54 nM; in experiment [2], 117 nM; in experiment [3], 18 nM; in experiment [4], 26.2 nM.

In the case of `N#CCCN1CCC(n2c(CCNC(=O)c3ccccc3)nc3cnc4[nH]ccc4c32)CC1` [Example 380, N-(2-{1-[1-(2-Cyano-ethyl)-piperidin-4-yl]-1,6-dihydro-1,3,5,6-tetraaza-as-indacen-2-yl}-ethyl)-benzamide], the Ki was 3.98 nM in experiment [1], 142 nM in experiment [2], 36 nM in experiment [3] and 62.6 nM in experiment [4].

On to `CCCS(=O)(=O)N1CCC(n2c(Cc3conc3C)nc3cnc4[nH]ccc4c32)CC1` [Example 381, 2-(3-Methyl-isoxazol-4-ylmethyl)-1-[1-(propane-1-sulfonyl)-piperidin-4-yl]-1,6-dihydro-1,3,5,6-tetraaza-as-indacene], for which the Ki in experiment [1] worked out at 87.1 nM; in experiment [2], 1990 nM; in experiment [3], 1270 nM; in experiment [4], 1840 nM.

Consider `NC(=O)Cc1nc2cnc3[nH]ccc3c2n1C1CCN(S(=O)(=O)C2CC2)CC1` [Example 382, 2-[1-(1-Cyclopropanesulfonyl-piperidin-4-yl)-1,6-dihydro-1,3,5,6-tetraaza-as-indacen-2-yl]-acetamide], for which the Ki in experiment [1] was determined as 134 nM; in experiment [2], 733 nM; in experiment [3], 589 nM; in experiment [4] it was 538 nM.

With `N#CCCN1CCC(n2c(CC3CC3)nc3cnc4[nH]ccc4c32)CC1` [Example 383, 3-[4-(2-Cyclopropylmethyl-6H-1,3,5,6-tetraaza-as-indacen-1-yl)-piperidin-1-yl]-propionitrile], the Ki in experiment [1] amounted to 9.88 nM; in experiment [2] it was 217 nM; in experiment [3], 35.6 nM; in experiment [4], 21.4 nM.

As to `N#CCCN1CCC(n2c(C3CCOCC3)nc3cnc4[nH]ccc4c32)CC1` [Example 385, 3-{4-[2-(Tetrahydro-pyran-4-yl)-6H-1,3,5,6-tetraaza-as-indacen-1-yl]-piperidin-1-yl}-propionitrile], the Ki was 51.3 nM in experiment [1], 1290 nM in experiment [2], 68.5 nM in experiment [3] and 15.5 nM in experiment [4].

In the case of `N#CCCN1CCC(n2c(CCn3cncn3)nc3cnc4[nH]ccc4c32)CC1` [Example 386, 3-{4-[2-(2-[1,2,4]Triazol-1-yl-ethyl)-6H-1,3,5,6-tetraaza-as-indacen-1-yl]-piperidin-1-yl}-propionitrile], the Ki in experiment [1] was determined as 17.8 nM; in experiment [2], 319 nM; in experiment [3], 64.3 nM; in experiment [4] it was 79.2 nM.

For `CC(=O)N(C)CCc1nc2cnc3[nH]ccc3c2n1C1CCN(CCC#N)CC1` [Example 387, N-(2-{1-[1-(2-Cyano-ethyl)-piperidin-4-yl]-1,6-dihydro-1,3,5,6-tetraaza-as-indacen-2-yl}-ethyl)-N-methyl-acetamide], the Ki in experiment [1] worked out at 15.4 nM; in experiment [2], 350 nM; in experiment [3] it was 54.1 nM; in experiment [4], 70.3 nM.
